{"source": "the NIST ThermoML archive (doi:10.1016/j.jct.2013.01.008)", "test": "mn = molality of the nth substance listed, in mol/kg", "details": "101 kPa, Liquid; for mass density: Pycnometric method; for viscosity: Capillary tube (Ostwald / Ubbelohde) method", "note": "± gives the expanded uncertainty stated by the source."}
{"compound": "C[C@@H](O)[C@H](N)C(=O)O", "note": "[L-threonine] + O", "values": [{"measurement": "mass density", "setting": "293.15 K, m1 = 0.025", "result": "999.31 ± 0.29", "unit": "kg/m3"}, {"measurement": "mass density", "setting": "293.15 K, m1 = 0.05", "result": "1000.36 ± 0.29", "unit": "kg/m3"}, {"measurement": "mass density", "setting": "293.15 K, m1 = 0.075", "result": "1001.39 ± 0.29", "unit": "kg/m3"}, {"measurement": "mass density", "setting": "293.15 K, m1 = 0.0999", "result": "1002.41 ± 0.29", "unit": "kg/m3"}, {"measurement": "mass density", "setting": "293.15 K, m1 = 0.1249", "result": "1003.41 ± 0.29", "unit": "kg/m3"}, {"measurement": "mass density", "setting": "293.15 K, m1 = 0.15", "result": "1004.39 ± 0.29", "unit": "kg/m3"}, {"measurement": "mass density", "setting": "293.15 K, m1 = 0.175", "result": "1005.36 ± 0.29", "unit": "kg/m3"}, {"measurement": "mass density", "setting": "293.15 K, m1 = 0.2", "result": "1006.31 ± 0.29", "unit": "kg/m3"}, {"measurement": "viscosity", "setting": "298.15 K, m1 = 0.025", "result": "0.8981 ± 0.0082", "unit": "mPa·s"}, {"measurement": "viscosity", "setting": "298.15 K, m1 = 0.05", "result": "0.9057 ± 0.0082", "unit": "mPa·s"}, {"measurement": "viscosity", "setting": "298.15 K, m1 = 0.075", "result": "0.9134 ± 0.0083", "unit": "mPa·s"}, {"measurement": "viscosity", "setting": "298.15 K, m1 = 0.0999", "result": "0.9211 ± 0.0083", "unit": "mPa·s"}, {"measurement": "viscosity", "setting": "298.15 K, m1 = 0.1249", "result": "0.9286 ± 0.0084", "unit": "mPa·s"}, {"measurement": "viscosity", "setting": "298.15 K, m1 = 0.15", "result": "0.936 ± 0.0084", "unit": "mPa·s"}, {"measurement": "viscosity", "setting": "298.15 K, m1 = 0.175", "result": "0.9434 ± 0.0084", "unit": "mPa·s"}, {"measurement": "viscosity", "setting": "298.15 K, m1 = 0.2", "result": "0.9511 ± 0.0085", "unit": "mPa·s"}, {"measurement": "mass density", "setting": "298.15 K, m1 = 0.025", "result": "998.14 ± 0.31", "unit": "kg/m3"}, {"measurement": "mass density", "setting": "298.15 K, m1 = 0.05", "result": "999.18 ± 0.31", "unit": "kg/m3"}, {"measurement": "mass density", "setting": "298.15 K, m1 = 0.075", "result": "1000.22 ± 0.31", "unit": "kg/m3"}, {"measurement": "mass density", "setting": "298.15 K, m1 = 0.0999", "result": "1001.23 ± 0.31", "unit": "kg/m3"}, {"measurement": "mass density", "setting": "298.15 K, m1 = 0.1249", "result": "1002.23 ± 0.31", "unit": "kg/m3"}, {"measurement": "mass density", "setting": "298.15 K, m1 = 0.15", "result": "1003.21 ± 0.31", "unit": "kg/m3"}, {"measurement": "mass density", "setting": "298.15 K, m1 = 0.175", "result": "1004.18 ± 0.31", "unit": "kg/m3"}, {"measurement": "mass density", "setting": "298.15 K, m1 = 0.2", "result": "1005.12 ± 0.31", "unit": "kg/m3"}, {"measurement": "viscosity", "setting": "303.15 K, m1 = 0.025", "result": "0.8051 ± 0.0075", "unit": "mPa·s"}, {"measurement": "viscosity", "setting": "303.15 K, m1 = 0.05", "result": "0.8128 ± 0.0075", "unit": "mPa·s"}, {"measurement": "viscosity", "setting": "303.15 K, m1 = 0.075", "result": "0.8205 ± 0.0076", "unit": "mPa·s"}, {"measurement": "viscosity", "setting": "303.15 K, m1 = 0.0999", "result": "0.828 ± 0.0076", "unit": "mPa·s"}, {"measurement": "viscosity", "setting": "303.15 K, m1 = 0.1249", "result": "0.8358 ± 0.0077", "unit": "mPa·s"}, {"measurement": "viscosity", "setting": "303.15 K, m1 = 0.15", "result": "0.8434 ± 0.0077", "unit": "mPa·s"}, {"measurement": "viscosity", "setting": "303.15 K, m1 = 0.175", "result": "0.851 ± 0.0077", "unit": "mPa·s"}, {"measurement": "viscosity", "setting": "303.15 K, m1 = 0.2", "result": "0.8584 ± 0.0078", "unit": "mPa·s"}, {"measurement": "mass density", "setting": "303.15 K, m1 = 0.025", "result": "996.75 ± 0.33", "unit": "kg/m3"}, {"measurement": "mass density", "setting": "303.15 K, m1 = 0.05", "result": "997.8 ± 0.33", "unit": "kg/m3"}, {"measurement": "mass density", "setting": "303.15 K, m1 = 0.075", "result": "998.83 ± 0.33", "unit": "kg/m3"}, {"measurement": "mass density", "setting": "303.15 K, m1 = 0.0999", "result": "999.84 ± 0.33", "unit": "kg/m3"}, {"measurement": "mass density", "setting": "303.15 K, m1 = 0.1249", "result": "1000.83 ± 0.33", "unit": "kg/m3"}, {"measurement": "mass density", "setting": "303.15 K, m1 = 0.15", "result": "1001.83 ± 0.33", "unit": "kg/m3"}, {"measurement": "mass density", "setting": "303.15 K, m1 = 0.175", "result": "1002.79 ± 0.33", "unit": "kg/m3"}, {"measurement": "mass density", "setting": "303.15 K, m1 = 0.2", "result": "1003.74 ± 0.33", "unit": "kg/m3"}, {"measurement": "viscosity", "setting": "308.15 K, m1 = 0.025", "result": "0.7266 ± 0.0067", "unit": "mPa·s"}, {"measurement": "viscosity", "setting": "308.15 K, m1 = 0.05", "result": "0.7344 ± 0.0068", "unit": "mPa·s"}, {"measurement": "viscosity", "setting": "308.15 K, m1 = 0.075", "result": "0.7421 ± 0.0068", "unit": "mPa·s"}, {"measurement": "viscosity", "setting": "308.15 K, m1 = 0.0999", "result": "0.7496 ± 0.0069", "unit": "mPa·s"}, {"measurement": "viscosity", "setting": "308.15 K, m1 = 0.1249", "result": "0.7571 ± 0.0069", "unit": "mPa·s"}, {"measurement": "viscosity", "setting": "308.15 K, m1 = 0.15", "result": "0.7645 ± 0.007", "unit": "mPa·s"}, {"measurement": "viscosity", "setting": "308.15 K, m1 = 0.175", "result": "0.7719 ± 0.007", "unit": "mPa·s"}, {"measurement": "viscosity", "setting": "308.15 K, m1 = 0.2", "result": "0.7792 ± 0.0071", "unit": "mPa·s"}, {"measurement": "mass density", "setting": "308.15 K, m1 = 0.025", "result": "995.14 ± 0.36", "unit": "kg/m3"}, {"measurement": "mass density", "setting": "308.15 K, m1 = 0.05", "result": "996.19 ± 0.36", "unit": "kg/m3"}, {"measurement": "mass density", "setting": "308.15 K, m1 = 0.075", "result": "997.23 ± 0.36", "unit": "kg/m3"}, {"measurement": "mass density", "setting": "308.15 K, m1 = 0.0999", "result": "998.24 ± 0.36", "unit": "kg/m3"}, {"measurement": "mass density", "setting": "308.15 K, m1 = 0.1249", "result": "999.24 ± 0.36", "unit": "kg/m3"}, {"measurement": "mass density", "setting": "308.15 K, m1 = 0.15", "result": "1000.23 ± 0.36", "unit": "kg/m3"}, {"measurement": "mass density", "setting": "308.15 K, m1 = 0.175", "result": "1001.2 ± 0.36", "unit": "kg/m3"}, {"measurement": "mass density", "setting": "308.15 K, m1 = 0.2", "result": "1002.15 ± 0.36", "unit": "kg/m3"}, {"measurement": "viscosity", "setting": "313.15 K, m1 = 0.025", "result": "0.66 ± 0.0061", "unit": "mPa·s"}, {"measurement": "viscosity", "setting": "313.15 K, m1 = 0.05", "result": "0.6678 ± 0.0062", "unit": "mPa·s"}, {"measurement": "viscosity", "setting": "313.15 K, m1 = 0.075", "result": "0.6754 ± 0.0062", "unit": "mPa·s"}, {"measurement": "viscosity", "setting": "313.15 K, m1 = 0.0999", "result": "0.6828 ± 0.0063", "unit": "mPa·s"}, {"measurement": "viscosity", "setting": "313.15 K, m1 = 0.1249", "result": "0.6901 ± 0.0063", "unit": "mPa·s"}, {"measurement": "viscosity", "setting": "313.15 K, m1 = 0.15", "result": "0.6974 ± 0.0064", "unit": "mPa·s"}, {"measurement": "viscosity", "setting": "313.15 K, m1 = 0.175", "result": "0.7047 ± 0.0064", "unit": "mPa·s"}, {"measurement": "viscosity", "setting": "313.15 K, m1 = 0.2", "result": "0.7119 ± 0.0065", "unit": "mPa·s"}, {"measurement": "mass density", "setting": "313.15 K, m1 = 0.025", "result": "993.32 ± 0.39", "unit": "kg/m3"}, {"measurement": "mass density", "setting": "313.15 K, m1 = 0.05", "result": "994.38 ± 0.39", "unit": "kg/m3"}, {"measurement": "mass density", "setting": "313.15 K, m1 = 0.075", "result": "995.42 ± 0.39", "unit": "kg/m3"}, {"measurement": "mass density", "setting": "313.15 K, m1 = 0.0999", "result": "996.44 ± 0.39", "unit": "kg/m3"}, {"measurement": "mass density", "setting": "313.15 K, m1 = 0.1249", "result": "997.44 ± 0.39", "unit": "kg/m3"}, {"measurement": "mass density", "setting": "313.15 K, m1 = 0.15", "result": "998.43 ± 0.39", "unit": "kg/m3"}, {"measurement": "mass density", "setting": "313.15 K, m1 = 0.175", "result": "999.4 ± 0.39", "unit": "kg/m3"}, {"measurement": "mass density", "setting": "313.15 K, m1 = 0.2", "result": "1000.35 ± 0.39", "unit": "kg/m3"}, {"measurement": "viscosity", "setting": "318.15 K, m1 = 0.025", "result": "0.6044 ± 0.0057", "unit": "mPa·s"}, {"measurement": "viscosity", "setting": "318.15 K, m1 = 0.05", "result": "0.6121 ± 0.0057", "unit": "mPa·s"}, {"measurement": "viscosity", "setting": "318.15 K, m1 = 0.075", "result": "0.6196 ± 0.0058", "unit": "mPa·s"}, {"measurement": "viscosity", "setting": "318.15 K, m1 = 0.0999", "result": "0.6269 ± 0.0058", "unit": "mPa·s"}, {"measurement": "viscosity", "setting": "318.15 K, m1 = 0.1249", "result": "0.6341 ± 0.0059", "unit": "mPa·s"}, {"measurement": "viscosity", "setting": "318.15 K, m1 = 0.15", "result": "0.6413 ± 0.0059", "unit": "mPa·s"}, {"measurement": "viscosity", "setting": "318.15 K, m1 = 0.175", "result": "0.6485 ± 0.006", "unit": "mPa·s"}, {"measurement": "viscosity", "setting": "318.15 K, m1 = 0.2", "result": "0.6556 ± 0.006", "unit": "mPa·s"}, {"measurement": "mass density", "setting": "318.15 K, m1 = 0.025", "result": "991.32 ± 0.41", "unit": "kg/m3"}, {"measurement": "mass density", "setting": "318.15 K, m1 = 0.05", "result": "992.38 ± 0.41", "unit": "kg/m3"}, {"measurement": "mass density", "setting": "318.15 K, m1 = 0.075", "result": "993.42 ± 0.41", "unit": "kg/m3"}, {"measurement": "mass density", "setting": "318.15 K, m1 = 0.0999", "result": "994.45 ± 0.41", "unit": "kg/m3"}, {"measurement": "mass density", "setting": "318.15 K, m1 = 0.1249", "result": "995.46 ± 0.41", "unit": "kg/m3"}, {"measurement": "mass density", "setting": "318.15 K, m1 = 0.15", "result": "996.45 ± 0.4", "unit": "kg/m3"}, {"measurement": "mass density", "setting": "318.15 K, m1 = 0.175", "result": "997.43 ± 0.4", "unit": "kg/m3"}, {"measurement": "mass density", "setting": "318.15 K, m1 = 0.2", "result": "998.39 ± 0.4", "unit": "kg/m3"}]}
